The values that follow come from publication PMC12673082 (Nature Communications, 2025).

One experiment relates to pdP2X7 Y298A. As to the kind of experiment: Whole-cell patch clamp, pdP2X7 mutant. The class given is cell-based, giant panda. The note with it: pd7Y298A, 30 μM.
The next experiment addresses T1, hP2X7 (Homo sapiens, UniProt Q99572).
T1 sequence (Q99572 1-595): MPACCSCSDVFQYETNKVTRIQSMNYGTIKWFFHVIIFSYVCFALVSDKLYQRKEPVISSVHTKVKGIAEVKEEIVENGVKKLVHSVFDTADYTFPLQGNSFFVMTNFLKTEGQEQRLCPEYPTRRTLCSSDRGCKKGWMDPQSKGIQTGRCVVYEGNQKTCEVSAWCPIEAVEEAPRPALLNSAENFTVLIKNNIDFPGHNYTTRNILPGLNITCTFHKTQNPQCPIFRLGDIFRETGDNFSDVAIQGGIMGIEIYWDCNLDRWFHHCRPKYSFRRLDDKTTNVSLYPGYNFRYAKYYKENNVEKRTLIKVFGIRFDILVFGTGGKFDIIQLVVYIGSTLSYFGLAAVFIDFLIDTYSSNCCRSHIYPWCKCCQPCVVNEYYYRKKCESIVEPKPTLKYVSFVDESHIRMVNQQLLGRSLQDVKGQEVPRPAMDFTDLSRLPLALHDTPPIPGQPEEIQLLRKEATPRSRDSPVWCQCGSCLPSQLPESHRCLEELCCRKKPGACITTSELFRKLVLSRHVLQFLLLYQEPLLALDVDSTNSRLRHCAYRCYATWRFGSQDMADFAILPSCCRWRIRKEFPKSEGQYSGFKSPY
As to the kind of experiment: Whole-cell patch clamp, ATP-evoked current, transfected HEK293. The class given is cell-based.

The target in a further experiment is hP2X4 (Homo sapiens, UniProt Q99571). In words: Nystatin-perforated patch recording, ATP-evoked current, HEK293. The class given is cell-based. Particulars: HEK293, read-out: inhibition rate.
For a further experiment, the system named is pdP2X7 F103W. In words: Whole-cell patch clamp, pdP2X7 mutant. The note with it: pd7F103W, 30 μM. The class given is cell-based, giant panda.
The target of a further experiment is hP2X3 (Homo sapiens, UniProt P56373). In words: Nystatin-perforated patch recording, ATP-evoked current, HEK293. The class given is cell-based. Particulars: HEK293, read-out: inhibition rate.
The next experiment deals with mP2X7 Y108F/A312V (Mus musculus, UniProt Q9Z1M0, A312V/Y108F). In words: Whole-cell patch clamp, mP2X7 mutant. The class given is cell-based. Particulars: 1 μM.
Another experiment addresses hP2X2 (Homo sapiens, UniProt Q9UBL9). In words: Whole-cell patch clamp, ATP-evoked current, transfected HEK293. The note with it: HEK293, read-out: inhibition rate. The class given is cell-based.
A further experiment deals with pdP2X7 F88A (Ailuropoda melanoleuca, UniProt G1M6C4, F89A). Particulars: pd7 F88A, 10 μM.
The target of the next experiment is T2, mP2X7 (Mus musculus, UniProt Q9Z1M0).
T2 sequence (Q9Z1M0 1-595): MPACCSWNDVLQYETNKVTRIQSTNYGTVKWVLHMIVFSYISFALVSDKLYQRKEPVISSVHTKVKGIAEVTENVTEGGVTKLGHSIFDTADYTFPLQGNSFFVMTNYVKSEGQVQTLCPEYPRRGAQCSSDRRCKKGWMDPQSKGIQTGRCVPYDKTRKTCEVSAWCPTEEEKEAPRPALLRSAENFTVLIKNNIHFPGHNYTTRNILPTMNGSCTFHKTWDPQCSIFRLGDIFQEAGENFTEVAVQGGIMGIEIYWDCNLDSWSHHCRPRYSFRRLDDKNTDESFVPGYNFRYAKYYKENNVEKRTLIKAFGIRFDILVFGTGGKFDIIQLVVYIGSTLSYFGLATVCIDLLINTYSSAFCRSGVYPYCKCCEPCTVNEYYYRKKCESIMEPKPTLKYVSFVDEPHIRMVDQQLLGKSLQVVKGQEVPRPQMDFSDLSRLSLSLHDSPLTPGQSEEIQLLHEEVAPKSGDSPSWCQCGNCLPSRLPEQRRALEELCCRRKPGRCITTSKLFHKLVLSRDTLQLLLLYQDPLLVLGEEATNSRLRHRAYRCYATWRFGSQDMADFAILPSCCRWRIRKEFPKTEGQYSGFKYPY
As to the kind of experiment: Whole-cell patch clamp, ATP-evoked current, transfected HEK293. The class given is cell-based. The note with it: HEK293, read-out: inhibition rate.

For another experiment, the target named is pdP2X7 M105F (Ailuropoda melanoleuca, UniProt G1M6C4, M106F). In words: cell-based.
For a further experiment, the target named is pdP2X7 F103A (Ailuropoda melanoleuca, UniProt G1M6C4, F104A). The note with it: pd7 F103A, 10 μM.
For a further experiment, the target named is pdP2X7 V312A (Ailuropoda melanoleuca, UniProt G1M6C4, V313A). Particulars: pd7 V312A, 10 μM.
For a further experiment, the target named is pdP2X7 P96G (Ailuropoda melanoleuca, UniProt G1M6C4, P97G). Particulars: pd7 P96G, 10 μM.
The next experiment relates to pdP2X7 Y295A. In words: Whole-cell patch clamp, pdP2X7 mutant. The class given is cell-based, giant panda. Particulars: pd7Y295A, 30 μM.
A further experiment has as its target T3, mP2X7 A312V (Mus musculus, UniProt Q9Z1M0, A312V).
T3 sequence (Q9Z1M0 1-595 A312V): T2 sequence (Q9Z1M0 1-595) with A312V
In words: Whole-cell patch clamp, mP2X7 mutant. The class given is cell-based.

In a further experiment the target is pdP2X7 (Ailuropoda melanoleuca, UniProt G1M6C4). In words: Whole-cell patch clamp, ATP-evoked current, transfected HEK293. The class given is cell-based, giant panda (Ailuropoda melanoleuca).
The target of another experiment is pdP2X7 E305F (Ailuropoda melanoleuca, UniProt G1M6C4, E306F). In words: cell-based.

Substitutions are numbered along the chain they refer to. Several values for one entry are separate records, joined by “and”; a condition that tells them apart may be missing. Identical values can stand only once.

pdP2X7, sequence (G1M6C4 2-595): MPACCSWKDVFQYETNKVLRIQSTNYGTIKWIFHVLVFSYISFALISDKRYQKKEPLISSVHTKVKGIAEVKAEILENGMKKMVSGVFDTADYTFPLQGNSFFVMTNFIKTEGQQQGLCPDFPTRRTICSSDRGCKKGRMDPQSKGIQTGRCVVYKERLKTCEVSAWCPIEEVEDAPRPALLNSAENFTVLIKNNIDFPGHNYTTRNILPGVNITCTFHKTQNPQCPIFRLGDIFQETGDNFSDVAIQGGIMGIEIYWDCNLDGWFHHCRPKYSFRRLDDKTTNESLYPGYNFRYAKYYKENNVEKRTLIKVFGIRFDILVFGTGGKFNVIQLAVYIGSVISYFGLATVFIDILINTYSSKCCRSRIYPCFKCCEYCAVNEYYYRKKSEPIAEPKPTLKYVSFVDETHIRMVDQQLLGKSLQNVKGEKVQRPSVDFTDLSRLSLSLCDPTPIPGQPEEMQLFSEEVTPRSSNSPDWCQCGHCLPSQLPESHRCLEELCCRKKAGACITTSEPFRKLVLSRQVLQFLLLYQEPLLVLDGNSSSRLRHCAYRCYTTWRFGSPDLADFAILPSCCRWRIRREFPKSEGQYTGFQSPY
pdP2X7 F88A, sequence (G1M6C4 2-595 F89A): as the sequence (G1M6C4 2-595) above, with F88A counted along it
hP2X4, sequence (Q99571 whole entry): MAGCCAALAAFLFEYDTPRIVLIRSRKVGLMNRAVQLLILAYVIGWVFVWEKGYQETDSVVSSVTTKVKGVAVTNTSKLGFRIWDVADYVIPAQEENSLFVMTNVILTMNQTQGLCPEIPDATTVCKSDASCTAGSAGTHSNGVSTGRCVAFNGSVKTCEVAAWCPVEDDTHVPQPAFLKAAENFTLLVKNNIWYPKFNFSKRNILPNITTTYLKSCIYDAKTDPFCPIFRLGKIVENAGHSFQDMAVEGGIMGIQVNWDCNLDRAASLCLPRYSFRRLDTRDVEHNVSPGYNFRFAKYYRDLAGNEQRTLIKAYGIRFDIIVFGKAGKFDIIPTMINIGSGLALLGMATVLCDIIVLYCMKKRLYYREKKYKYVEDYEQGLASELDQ
pdP2X7 M105F, sequence (G1M6C4 2-595 M106F): as the sequence (G1M6C4 2-595) above, with M105F counted along it
pdP2X7 P96G, sequence (G1M6C4 2-595 P97G): as the sequence (G1M6C4 2-595) above, with P96G counted along it
pdP2X7 E305F, sequence (G1M6C4 2-595 E306F): as the sequence (G1M6C4 2-595) above, with E305F counted along it
pdP2X7 F103A, sequence (G1M6C4 2-595 F104A): as the sequence (G1M6C4 2-595) above, with F103A counted along it
mP2X7 Y108F/A312V, sequence (Q9Z1M0 whole entry Y108F/A312V): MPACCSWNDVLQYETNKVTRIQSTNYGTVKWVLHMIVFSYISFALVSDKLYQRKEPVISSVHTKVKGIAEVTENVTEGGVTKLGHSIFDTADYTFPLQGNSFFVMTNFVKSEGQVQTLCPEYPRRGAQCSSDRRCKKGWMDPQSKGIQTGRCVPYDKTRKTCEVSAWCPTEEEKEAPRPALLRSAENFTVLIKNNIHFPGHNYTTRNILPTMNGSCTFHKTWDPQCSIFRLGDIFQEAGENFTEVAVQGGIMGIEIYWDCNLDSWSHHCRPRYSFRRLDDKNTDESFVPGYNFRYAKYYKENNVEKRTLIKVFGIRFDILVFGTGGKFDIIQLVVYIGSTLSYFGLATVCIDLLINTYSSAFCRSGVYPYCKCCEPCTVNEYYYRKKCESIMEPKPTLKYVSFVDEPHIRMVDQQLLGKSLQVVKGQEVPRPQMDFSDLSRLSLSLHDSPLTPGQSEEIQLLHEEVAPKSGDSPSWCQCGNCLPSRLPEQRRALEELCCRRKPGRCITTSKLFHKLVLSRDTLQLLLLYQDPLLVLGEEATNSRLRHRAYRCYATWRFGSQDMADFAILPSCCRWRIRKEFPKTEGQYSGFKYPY
pdP2X7 V312A, sequence (G1M6C4 2-595 V313A): as the sequence (G1M6C4 2-595) above, with V312A counted along it
hP2X3, sequence (P56373 whole entry): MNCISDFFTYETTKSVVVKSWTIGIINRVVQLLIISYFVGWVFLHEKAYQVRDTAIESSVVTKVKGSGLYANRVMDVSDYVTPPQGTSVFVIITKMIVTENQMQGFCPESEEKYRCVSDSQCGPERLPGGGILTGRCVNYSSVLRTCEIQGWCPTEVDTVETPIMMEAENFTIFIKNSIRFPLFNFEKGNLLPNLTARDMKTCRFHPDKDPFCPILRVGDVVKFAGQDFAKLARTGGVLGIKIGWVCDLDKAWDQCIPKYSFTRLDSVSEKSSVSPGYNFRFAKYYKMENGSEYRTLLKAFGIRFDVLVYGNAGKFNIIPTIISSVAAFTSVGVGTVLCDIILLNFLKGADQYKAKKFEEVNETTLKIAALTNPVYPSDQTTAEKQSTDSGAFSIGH
hP2X2, sequence (Q9UBL9 whole entry): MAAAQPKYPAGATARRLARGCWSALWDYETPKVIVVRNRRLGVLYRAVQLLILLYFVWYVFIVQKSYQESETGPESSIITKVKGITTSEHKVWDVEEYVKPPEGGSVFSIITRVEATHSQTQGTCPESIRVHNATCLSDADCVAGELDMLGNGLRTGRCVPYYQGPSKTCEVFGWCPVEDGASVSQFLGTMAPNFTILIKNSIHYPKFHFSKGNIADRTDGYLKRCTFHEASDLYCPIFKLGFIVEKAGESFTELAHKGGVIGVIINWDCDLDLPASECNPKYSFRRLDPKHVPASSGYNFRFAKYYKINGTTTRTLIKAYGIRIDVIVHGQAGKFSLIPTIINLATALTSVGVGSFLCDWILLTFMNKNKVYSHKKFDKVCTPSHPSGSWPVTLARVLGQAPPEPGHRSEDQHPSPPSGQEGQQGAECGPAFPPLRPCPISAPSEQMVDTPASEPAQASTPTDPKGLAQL

Regarding `C=CC[C@@H]1c2ccc(OC)c(OC)c2CN2CCc3cc4c(cc3[C@H]12)OCO4` [PSFL1191, (13R,13aS)-13-allyl-9,10-dimethoxy-5,8,13,13a-tetrahydro-6H-1,3dioxolo[4,5-g]isoquinolino[3,2-a]isoquinoline], the inhibition rate in the experiment with pdP2X7 Y298A, with pdP2X7 F103W and in the experiment with pdP2X7 Y295A was at most 50% in each case. In addition, the IC50 at hP2X7 came to 0.248 ± 0.017 µM; against pdP2X7 M105F it was 2.06 µM; at mP2X7 A312V it was 0.908 ± 0.026 µM; against pdP2X7 it was 0.754 ± 0.018 µM; at pdP2X7 E305F it was 1.57 ± 0.36 µM. Also, the “fold difference in affinity for hP2X7 between PSFL1191 and PSFL1190” value on hP2X7 is ~50 fold and > 50 fold. The inhibition at 30 µM at hP2X4 is -17.6 ± 9%; on hP2X3, 20.6 ± 6.4%; on hP2X2 it was 3.09 ± 7.46%; on mP2X7, 13.3 ± 3.04%. Moreover, the “fold increase of inhibition compared to m7WT” value was around 26 fold at mP2X7 Y108F/A312V; ~ 21 fold and 21 fold at mP2X7 A312V (mP2X7 A312V, 1 μM). The “inhibitory effect on ATP (1 mM)-induced activation (inhibition ratio)” value on pdP2X7 F88A, at pdP2X7 F103A, at pdP2X7 V312A and on pdP2X7 P96G was “significantly attenuated” each time. Also, the “apparent affinity, times lower than that of JNJ-54175446” value on pdP2X7 (pdP2X7) is 10-20 times.
